The target in assay [1] is T1, Amine oxidase [flavin-containing] A (Homo sapiens, UniProt P21397).
T1 sequence (P21397 whole entry): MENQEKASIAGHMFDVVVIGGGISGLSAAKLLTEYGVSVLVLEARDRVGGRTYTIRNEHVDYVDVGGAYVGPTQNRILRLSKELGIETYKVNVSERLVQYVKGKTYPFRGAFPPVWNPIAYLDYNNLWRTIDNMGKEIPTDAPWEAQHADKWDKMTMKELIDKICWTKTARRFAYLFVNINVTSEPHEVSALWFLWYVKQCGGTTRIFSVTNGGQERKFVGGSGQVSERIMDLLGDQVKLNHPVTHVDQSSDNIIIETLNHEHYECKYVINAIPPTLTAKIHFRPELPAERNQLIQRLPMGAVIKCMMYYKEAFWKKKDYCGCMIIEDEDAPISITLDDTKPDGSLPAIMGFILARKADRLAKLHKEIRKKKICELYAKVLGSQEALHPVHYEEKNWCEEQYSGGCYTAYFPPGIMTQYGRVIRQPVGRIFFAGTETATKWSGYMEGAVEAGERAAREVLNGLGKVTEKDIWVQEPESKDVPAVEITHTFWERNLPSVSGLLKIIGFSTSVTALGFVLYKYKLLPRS
Put plainly: biochemical.
Description: Inhibition of human recombinant MAO-A expressed in baculovirus infected insect cells by luminescence assay

For assay [2], the target named is T2, Lysine-specific histone demethylase 2 (Homo sapiens, UniProt Q8NB78).
T2 sequence (Q8NB78 whole entry): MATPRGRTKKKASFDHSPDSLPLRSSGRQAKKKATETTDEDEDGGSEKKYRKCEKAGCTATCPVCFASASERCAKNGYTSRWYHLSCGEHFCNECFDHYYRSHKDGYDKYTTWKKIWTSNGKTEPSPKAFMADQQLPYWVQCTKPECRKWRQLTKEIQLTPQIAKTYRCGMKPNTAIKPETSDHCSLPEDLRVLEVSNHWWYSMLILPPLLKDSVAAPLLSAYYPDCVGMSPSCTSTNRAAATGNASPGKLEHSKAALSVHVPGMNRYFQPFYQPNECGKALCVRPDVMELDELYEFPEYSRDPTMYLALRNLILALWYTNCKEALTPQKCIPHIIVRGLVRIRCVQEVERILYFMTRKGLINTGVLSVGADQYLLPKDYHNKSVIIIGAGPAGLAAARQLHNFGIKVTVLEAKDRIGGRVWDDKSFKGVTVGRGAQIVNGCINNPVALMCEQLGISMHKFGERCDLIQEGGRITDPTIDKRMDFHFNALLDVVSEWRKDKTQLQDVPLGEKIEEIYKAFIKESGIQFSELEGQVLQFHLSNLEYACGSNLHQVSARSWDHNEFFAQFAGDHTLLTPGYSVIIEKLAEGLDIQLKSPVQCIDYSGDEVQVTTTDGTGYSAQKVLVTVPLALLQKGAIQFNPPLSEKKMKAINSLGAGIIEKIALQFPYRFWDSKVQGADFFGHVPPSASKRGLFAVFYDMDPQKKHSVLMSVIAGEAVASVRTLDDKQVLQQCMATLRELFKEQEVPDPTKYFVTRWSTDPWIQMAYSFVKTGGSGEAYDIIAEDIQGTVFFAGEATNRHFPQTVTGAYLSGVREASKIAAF
Description: Inhibition of human full length LSD2 using biotin-labeled H3K4me2 (1 to 24 residues) as substrate after 1 hr by TR-FRET assay

For assay [3], the target named is T3, Amine oxidase [flavin-containing] B (Homo sapiens, UniProt P27338).
T3 sequence (P27338 whole entry): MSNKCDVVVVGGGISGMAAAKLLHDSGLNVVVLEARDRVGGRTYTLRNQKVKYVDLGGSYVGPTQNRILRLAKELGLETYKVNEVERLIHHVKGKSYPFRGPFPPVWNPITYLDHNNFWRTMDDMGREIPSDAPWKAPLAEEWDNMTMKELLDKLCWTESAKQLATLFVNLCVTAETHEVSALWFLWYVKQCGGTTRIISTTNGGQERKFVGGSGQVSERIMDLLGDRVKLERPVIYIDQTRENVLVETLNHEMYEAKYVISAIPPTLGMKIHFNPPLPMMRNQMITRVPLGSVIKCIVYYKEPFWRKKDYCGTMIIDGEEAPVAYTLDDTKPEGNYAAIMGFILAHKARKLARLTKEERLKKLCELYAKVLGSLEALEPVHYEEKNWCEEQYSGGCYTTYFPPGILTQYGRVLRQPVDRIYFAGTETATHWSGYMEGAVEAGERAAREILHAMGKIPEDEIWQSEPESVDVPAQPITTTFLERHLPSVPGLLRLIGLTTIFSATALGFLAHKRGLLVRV
Put plainly: biochemical.
Description: Inhibition of human recombinant MAO-B expressed in baculovirus infected insect cells by luminescence assay

For assay [4], the system named is RPMI-8226. Put plainly: Antiproliferative activity against human RPMI8226 cells after 3 days by MTS assay. The assay is classed as functional, cell-based. The following applies: RPMI-8226, 72 h.
Assay [5] deals with MV4-11. The assay is described as follows: Antiproliferative activity against human MV4-11 cells after 3 days by MTS assay. The note with it: MV4-11, 72 h. The assay is classed as functional, cell-based. Background: Tetrazolium assays rely on reduction of a dye to a coloured formazan, in cell work by metabolically active cells.
Assay [6] deals with RPMI-8226. Put plainly: Antiproliferative activity against human RPMI8226 cells after 10 days by MTS assay. The following applies: RPMI-8226, 240 h. The assay is classed as functional, cell-based.
Assay [7] has as its system MV4-11. The assay is described as follows: Antiproliferative activity against human MV4-11 cells after 10 days by MTS assay. The assay is classed as functional, cell-based. The following applies: MV4-11, 240 h.

The pIC50 is the IC50 on a negative log10 scale, so that one unit is a factor of ten.

pIC50: −log10 of the molar value.

`COc1ncccc1CN[C@@H]1[C@H]2Cc3ccccc3[C@H]21` (racemic): the pIC50 in assay [1], in assay [2] and in assay [3] was below 4.00 throughout.
Turning to `N[C@H]1[C@H]2Cc3ccccc3[C@@H]12` (relative stereo), the pIC50 in assay [1] and in assay [3] was below 4.00 each time.
In the case of `N[C@H]1CC[C@@H](N[C@H]2[C@H]3Cc4ccccc4[C@H]32)CC1` (racemic), the pIC50 is below 4.00 in assay [1]; below 4.70 in assay [4]; below 4.00 in assay [3]; below 4.70 in assay [5]; below 4.70 in assay [6]; 6.70 in assay [7].
`NC1CCC(N[C@@H]2C[C@H]2c2ccccc2)CC1` (stereo partly specified): the pIC50 in assay [1] was below 4.00; in assay [4] it was below 4.70; in assay [2], below 4.00; in assay [5] it was below 4.70; in assay [6] it was below 4.70; in assay [7], 7.52.
Turning to `COc1ncccc1CN[C@H]1[C@H]2Cc3ccccc3[C@H]21` (racemic), the negative-log IC50 (pIC50) in assay [1] was 4.10; in assay [3], below 4.00.
As to `N[C@H]1CC[C@H](N[C@H]2[C@H]3Cc4ccccc4[C@H]32)CC1` (racemic), the negative logarithm of the IC50 (pIC50) is below 4.00 in assay [1]; below 4.70 in assay [4]; below 4.00 in assay [3]; below 4.70 in assay [5]; below 4.70 in assay [6]; 6.15 in assay [7].
For the compound `N[C@H]1CC[C@H](N[C@@H]2[C@H]3Cc4ccccc4[C@H]32)CC1` (racemic), the negative-log IC50 (pIC50) in assay [1] and in assay [3] was below 4.00 in each case.
In the case of `N[C@H]1CC[C@@H](N[C@@H]2[C@H]3Cc4ccccc4[C@H]32)CC1` (racemic), the pIC50 in assay [1] and in assay [3] was below 4.00 in each case.
Regarding `N[C@@H]1[C@H]2Cc3ccccc3[C@@H]12` (relative stereo), the pIC50 in assay [1] and in assay [3] was below 4.00 throughout.

Source of the values: ChEMBL document CHEMBL4130492, “Tying up tranylcypromine: Novel selective histone lysine specific demethylase 1 (LSD1) inhibitors” (Eur J Med Chem, 2017).
